Source: US7842660B2, “4-hepten-2-yl salicylate and its use as fragrance ingredient” (Givaudan SA, priority 2004, dated 2010)

System: panel of trained evaluators
Assay: Determination of the GC-odor threshold values (gas chromatograph with sniff port)
Details: for odor threshold value, geometric mean: GC sniff port, absolute amount of compound delivered at the sniff port, identical conditions
Source text: As used herein “odor threshold value” means the lowest concentration of a vapor in the air which can be detected by smell. Generally speaking, it can be said that a compound with a low odor threshold value is more powerful than a compound with a high odor threshold value and thus allows the use of a very low concentration in a fragrance composition to achieve an olfactory effect. According to standard procedures known to the person skilled in the art, threshold values for volatile perfumery compounds are determined on a gas chromatograph equipped with a sniff port by a panel of trained evaluators. The lowest concentration smelled by each panelist is recorded as the individual threshold value expressed in ng (absolute amount of compound delivered at the sniff port). By way of comparison, there were also tested (Z)-2-methyl-3-hexen-1-yl salicylate and (Z)-3-hexen-1-yl 2-hydroxy-3-methylbenzoate. The objective was to show the considerable effect exerted by the position of a substituent. Under identical conditions the odor threshold value for the individual compounds was measured.

CC/C=C\CCOC(=O)c1ccccc1O [(Z)-3-Hexen-1-yl salicylate]
odor threshold value, geometric mean: 0.92 ng

CC/C=C\CC(C)OC(=O)c1ccccc1O (centres unmarked) [(Z)-4-Hepten-2-yl salicylate]
odor threshold of the (Z)-isomer relative to the (E)-isomer (times lower) ((Z)- vs (E)-4-hepten-2-yl salicylate): about 10 times | odor threshold value, geometric mean: 0.77 ng

CC/C=C\CCOC(=O)c1cccc(C)c1O [(Z)-3-Hexen-1-yl 2-hydroxy-3-methylbenzoate]
odor threshold value, geometric mean: 201 ng

CC/C=C\C(C)COC(=O)c1ccccc1O (centres unmarked) [(Z)-2-Methyl-3-hexen-1-yl salicylate]
odor threshold value, geometric mean: 10 ng
